# Measurements published in ChEMBL document CHEMBL3877300, “Design, synthesis, docking studies and biological evaluation of novel dihydro-1,3,5-triazines as human DHFR inhibitors” (Eur J Med Chem, 2017).
# Legend:
# [1] = cells; details: Homo sapiens, A549, 72 h
# Description: Antiproliferative activity against human A549 cells after 72 hrs by MTT assay
# [2] = Antiproliferative activity against human HepG2 cells after 72 hrs by MTT assay; assay type: functional, cell-based; details: HepG2, 72 h
# [3] = Antiproliferative activity against human MDA-MB-231 cells after 72 hrs by MTT assay; assay type: functional, cell-based; details: MDA-MB-231, 72 h
# [4] = Antiproliferative activity against human HL60 cells after 72 hrs by MTT assay; assay type: functional, cell-based; details: HL-60, 72 h
# [5] = cells; details: Homo sapiens, HCT-116, 72 h
# Description: Antiproliferative activity against human HCT116 cells after 72 hrs by MTT assay
# [6] = molecular target: T1, Dihydrofolate reductase (Homo sapiens, UniProt P00374); experiment: Inhibition of recombinant human DHFR using DHF as substrate measured every 5 sec over 6 mins in presence of NADPH by UV-Visible spectrophotometric method relative to control
# T1 sequence (P00374 whole entry): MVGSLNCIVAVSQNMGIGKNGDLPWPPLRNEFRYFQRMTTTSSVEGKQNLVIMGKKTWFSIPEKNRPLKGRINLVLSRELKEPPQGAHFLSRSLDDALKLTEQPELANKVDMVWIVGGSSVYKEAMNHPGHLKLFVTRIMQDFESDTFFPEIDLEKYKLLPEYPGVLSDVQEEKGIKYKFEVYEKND
# [7] = system: Mus musculus; experiment: Toxicity in BALB/c nude mouse xenografted with human A549 cells assessed as body weight at 50 mg/kg, ip administered 14 times in 22 days measured on day 11 post dose (reference value: 24.99 +/- 0.97 g); assay type: organism-based; details: in vivo, 528 h
# [8] = system: Mus musculus; experiment: Toxicity in BALB/c nude mouse xenografted with human A549 cells assessed as body weight at 50 mg/kg, ip administered 14 times in 22 days measured on day 8 post dose (reference value: 25.19 +/- 1.38 g); assay type: organism-based; details: in vivo, 528 h
# [9] = Antitumor activity against human A549 cells xenografted in BALB/c nude mouse assessed as tumor growth inhibition at 50 mg/kg, ip administered 14 times in 22 days measured on day 15 post dose relative to control; assay type: functional; details: read-out: TGI
# [10] = Antitumor activity against human A549 cells xenografted in BALB/c nude mouse assessed as tumor volume at 50 mg/kg, ip administered 14 times in 22 days measured on day 11 post dose (reference value: 373.93 +/- 59.98 mm3); assay type: functional
# [11] = system: Mus musculus; experiment: Toxicity in BALB/c nude mouse xenografted with human A549 cells assessed as body weight at 50 mg/kg, ip administered 14 times in 22 days measured on day 22 post dose (reference value: 25.59 +/- 1.16 g); assay type: organism-based; details: in vivo, 528 h
# [12] = Antitumor activity against human A549 cells xenografted in BALB/c nude mouse assessed as tumor volume at 50 mg/kg, ip administered 14 times in 22 days measured on day 22 post dose (reference value: 912.28 +/- 140.04 mm3); assay type: functional
# [13] = Antitumor activity against human A549 cells xenografted in BALB/c nude mouse assessed as tumor growth inhibition at 50 mg/kg, ip administered 14 times in 22 days measured on day 4 post dose relative to control; assay type: functional; details: read-out: TGI
# [14] = Antitumor activity against human A549 cells xenografted in BALB/c nude mouse assessed as tumor growth inhibition at 50 mg/kg, ip administered 14 times in 22 days measured on day 22 post dose relative to control; assay type: functional; details: 528 h, read-out: TGI
# [15] = Antitumor activity against human A549 cells xenografted in BALB/c nude mouse assessed as tumor growth inhibition at 50 mg/kg, ip administered 14 times in 22 days measured on day 11 post dose relative to control; assay type: functional; details: read-out: TGI
# [16] = Antitumor activity against human A549 cells xenografted in BALB/c nude mouse assessed as tumor volume at 50 mg/kg, ip administered 14 times in 22 days measured on day 4 post dose (reference value: 207.73 +/- 56.48 mm3); assay type: functional
# [17] = system: Mus musculus; experiment: Toxicity in BALB/c nude mouse xenografted with human A549 cells assessed as body weight at 50 mg/kg, ip administered 14 times in 22 days measured on day 15 post dose (reference value: 25.41 +/- 1.04 g); assay type: organism-based; details: in vivo, 528 h
# [18] = Antitumor activity against human A549 cells xenografted in BALB/c nude mouse assessed as tumor growth inhibition at 50 mg/kg, ip administered 14 times in 22 days measured on day 8 post dose relative to control; assay type: functional; details: read-out: TGI
# [19] = Antitumor activity against human A549 cells xenografted in BALB/c nude mouse assessed as tumor volume at 50 mg/kg, ip administered 14 times in 22 days measured on day 1 post dose (reference value: 117.71 +/- 7.29 mm3); assay type: functional
# [20] = system: Mus musculus; experiment: Toxicity in BALB/c nude mouse xenografted with human A549 cells assessed as body weight at 50 mg/kg, ip administered 14 times in 22 days measured on day 4 post dose (reference value: 24.84 +/- 1.22 g); assay type: organism-based; details: in vivo, 528 h
# [21] = Antitumor activity against human A549 cells xenografted in BALB/c nude mouse assessed as tumor growth inhibition at 50 mg/kg, ip administered 14 times in 22 days measured on day 18 post dose relative to control; assay type: functional; details: read-out: TGI
# [22] = system: Mus musculus; experiment: Toxicity in BALB/c nude mouse xenografted with human A549 cells assessed as body weight at 50 mg/kg, ip administered 14 times in 22 days measured on day 1 post dose (reference value: 24.73 +/- 1.33 g); assay type: organism-based; details: in vivo, 528 h
# [23] = Antitumor activity against human A549 cells xenografted in BALB/c nude mouse assessed as tumor volume at 50 mg/kg, ip administered 14 times in 22 days measured on day 18 post dose (reference value: 692.11 +/- 102.17 mm3); assay type: functional
# [24] = system: Mus musculus; experiment: Toxicity in BALB/c nude mouse xenografted with human A549 cells assessed as body weight at 50 mg/kg, ip administered 14 times in 22 days measured on day 18 post dose (reference value: 25.66 +/- 1.16 g); assay type: organism-based; details: in vivo, 528 h
# [25] = Antitumor activity against human A549 cells xenografted in BALB/c nude mouse assessed as tumor volume at 50 mg/kg, ip administered 14 times in 22 days measured on day 8 post dose (reference value: 288.71 +/- 54.75 mm3); assay type: functional
# [26] = Antitumor activity against human A549 cells xenografted in BALB/c nude mouse assessed as tumor volume at 50 mg/kg, ip administered 14 times in 22 days measured on day 15 post dose (reference value: 502.27 +/- 69.26 mm3); assay type: functional
Compound,IC50 [1] [nM],IC50 [2] [nM],IC50 ([3]; read-out: IC50) [nM],IC50 [4] [nM],IC50 [5] [nM],IC50 [6] [nM],further results
NC1=NC2(CCOCC2)N(OCCCOc2cccc(Cl)c2Cl)C(N)=N1,100,330,140,440,5,,
NC1=NC2(CCOCC2)N(OCCCOc2ccccc2Cl)C(N)=N1,2700,1750,1430,660,70,,
CC(C)(C)c1ccc(OCCCON2C(N)=NC(N)=NC23CCSCC3)cc1,1,70,1,280,1,,
Cc1ccc(OCCCON2C(N)=NC(N)=NC23CCOCC3)cc1,1060,,,2580,2390,56.7,
NC1=NC2(CCOCC2)N(OCCCOc2ccc(Cl)cc2)C(N)=N1,360,,,330,690,33.6,
NC1=NC2(CCSCC2)N(OCCCOc2ccc(Cl)c(Cl)c2)C(N)=N1,1,70,10,140,1,,
NC1=NC2(CCSCC2)N(OCCCOc2ccc(Br)cc2)C(N)=N1,740,1400,440,350,20,6.46,
NC1=NC2(CCSCC2)N(OCCCOc2cccc(Br)c2)C(N)=N1,50,90,60,200,1,,
Br.NC1=NC2(CCOCC2)N(OCCCOc2ccc(Cl)cc2Cl)C(N)=N1,70,,,330,880,7.46,Activity [7]: 22.97 g; Activity [8]: 23.17 g; inhibition in vivo at 50 mg/kg [9]: 24.7%; Activity [10]: 312.21 mm3; Activity [11]: 23.47 g; Activity [12]: 574.09 mm3; inhibition in vivo at 50 mg/kg [13]: 17.6%; inhibition in vivo at 50 mg/kg [14]: 36.8%; inhibition in vivo at 50 mg/kg [15]: 16.3%; Activity [16]: 170.3 mm3; Activity [17]: 23.63 g; inhibition in vivo at 50 mg/kg [18]: 14.5%; Activity [19]: 117.63 mm3; Activity [20]: 23.53 g; inhibition in vivo at 50 mg/kg [21]: 32.8%; Activity [22]: 23.65 g; Activity [23]: 468.15 mm3; Activity [24]: 23.65 g; Activity [25]: 249.09 mm3; Activity [26]: 378.49 mm3
NC1=NC2(CCSCC2)N(OCCCOc2ccc(Cl)cc2Cl)C(N)=N1,210,1380,60,330,1,4.08,
NC1=NC2(CCOCC2)N(OCCCOc2cccc(Cl)c2)C(N)=N1,150,150,1020,520,120,,
COc1ccc(OCCCON2C(N)=NC(N)=NC23CCSCC3)cc1,240,880,350,500,70,,
NC1=NC2(CCSCC2)N(OCCCOc2cccc(Cl)c2)C(N)=N1,60,90,130,260,1,,
NC1=NC2(CCSCC2)N(OCCCOc2cccc(Cl)c2Cl)C(N)=N1,1,50,1,30,1,,
NC1=NC2(CCOCC2)N(OCCCOc2cc(Cl)c(Cl)cc2Cl)C(N)=N1,680,,,2360,2750,36,
NC1=NC2(CCOCC2)N(OCCCOc2ccccc2Br)C(N)=N1,160,860,910,610,30,,
CC(C)(C)c1ccc(OCCCON2C(N)=NC(N)=NC23CCOCC3)cc1,500,,,870,1610,3.72,
NC1=NC2(CCOCC2)N(OCCCOc2ccc(Br)cc2)C(N)=N1,280,,,310,320,32.5,
NC1=NC2(CCSCC2)N(OCCCOc2cc(Cl)c(Cl)cc2Cl)C(N)=N1,> 100000,> 100000,110,730,1,,
NC1=NC2(CCSCC2)N(OCCCOc2ccccc2Cl)C(N)=N1,80,80,80,390,1,,
NC1=NC2(CCOCC2)N(OCCCOc2cccc(Br)c2)C(N)=N1,160,320,400,560,40,,
Cc1cc(C)cc(OCCCON2C(N)=NC(N)=NC23CCOCC3)c1,710,680,3570,720,190,,
COc1ccc(OCCCON2C(N)=NC(N)=NC23CCOCC3)cc1,660,,,1670,1500,11.1,
NC1=NC2(CCOCC2)N(OCCCOc2ccccc2)C(N)=N1,1080,,,2460,6010,86.1,
COc1cccc2c1C(=O)c1c(O)c3c(c(O)c1C2=O)C[C@@](O)(C(=O)CO)C[C@@H]3O[C@H]1C[C@H](N)[C@H](O)[C@H](C)O1 [DOXORUBICIN],120,,,,310,,IC50 [3]: 720 nM
NC1=NC2(CCSCC2)N(OCCCOc2ccccc2Br)C(N)=N1,40,90,10,180,1,,
NC1=NC2(CCCCC2)N(OCCCOc2ccc(Cl)cc2)C(N)=N1,990,2330,1210,580,380,49,
NC1=NC2(CCOCC2)N(OCCCOc2ccc(Cl)c(Cl)c2)C(N)=N1,790,380,590,1240,90,8.23,
NC1=NC2(CCSCC2)N(OCCCOc2ccc(Cl)cc2)C(N)=N1,580,1100,350,430,10,18.3,
NC1=NC2(CCOCC2)N(OCCCOc2ccc(F)cc2)C(N)=N1,1060,,,2380,3280,46.6,
